Experimental data from patent US8187646B2, “Nucleotide pyrophosphatase inhibitor and coenzyme regenerating systems” (Puratos N.V., priority 2004, dated 2012).
Entries after “also recorded” stand apart in the source; their conditions may differ. Each block holds one compound with its values, some of them ahead of it.

Key:
[1] = test system: wheat flour nucleotide pyrophosphatase (NPP); experiment: In vitro NPP inhibition studies (NAD+ degradation by wheat flour extract); type: biochemical; settings: for ability to inhibit NPP in wheat flour: ADP about 1-2 mM, phosphates tested at 10 g/l; for reactivation of the inhibited enzyme by divalent metal ions: addition of divalent ions (Mg2+, Mn2+; excess MgCl2, MnCl2, ZnCl2, CaCl2)
Protocol: As an example of nucleotide pyrophosphatase inhibition, pyrophosphate was tested.
To perform in vitro nucleotide pyrophosphatase (NPP) inhibition studies, a reaction mixture of 5 ml was made containing 2.5 ml of flour extract (see Example 12), 1.5 ml of NAD^+ or NADH solution and 1 ml of potential inhibitor. The coenzymes and inhibitors were dissolved in a 0.2 M acetate buffer at pH 5.5. The final coenzyme concentration was 0.5 mM, unless otherwise mentioned. The different phosphates ([…] (Na2H2P2O7), sodium metaphosphate ((NaPO3)n), pentasodium tripolyphosphate (Na5P3O10), tetrasodium pyrophosphate (Na4P2O7) and dicalcium pyrophosphate (CaH2P2O7)) were tested in a concentration of 10 g/l. For the reactivation experiments with metal ions and to test a synergetic effect of glycine with EDTA the reaction mixture was adapted: 500 μl of inhibitor was added together with 500 μl of cation or glycine instead of 1 ml inhibitor. For the reactivation experiments with metal ions, the chloride forms of the cations were used, i.e. MgCl2, MnCl2, ZnCl2 and CaCl2.
A flour extract was prepared based on the method described by Honold et al. (1966, Cereal Chemistry 43:517-528). To 5 g of flour, 25 ml of an aqueous 12.5% sucrose solution was added. The solution was homogenised with an UltraTurrax mixer (IKA Werke, Janke & Kunkel GmbH & CoKG, Staufen, Germany). This homogenised flour suspension was centrifuged during 5 minutes at 1000 rpm (77 g) (SS34 rotor, Sorvall RC 5B centrifuge). The supernatant was recovered and filtrated through Whatman No. 1 filter paper. The filtrate was used as crude flour extract. All steps were carried out between 0° C. and 5° C.

[2] = test system: nicotinamide coenzymes NAD+/NADH in dough systems; experiment: Coenzyme (NAD+/NADH) concentrations in dough systems (mini doughs); design: species or system wheat; settings: 0.3 g calcium pyrophosphate per 100 g flour; before and after 60 minutes dough resting at 25° C.
Protocol: The oxidised (NAD^+) and reduced (NADH) form of the nicotinamide coenzymes were extracted from doughs with an acid and alkaline extraction method respectively.
The coenzymes, NAD^+ and NADH, can be determined with an isocratic reversed phase HPLC method on a Varian Prostar HPLC system. Separation of the coenzymes NAD^+ and NADH was carried out on a Chromsep Microspher 3C18 column (3 μm particle size, 4.6×100 mm, Chrompack). The mobile phase was 96% 0.15 M citrate-sodium phosphate buffer (pH 6.8) containing 1 mM EDTA, and 4% methanol (30° C.). The flow rate was 0.5 ml/min and detection was accomplished by UV absorption at 260 nm (Varian Prostar UV 320).
All samples were filtrated (Sartorius Minisart RC15, 0.45 μm) and sample injection (20 μl) was accomplished with a Varian Prostar 410 autosampler. The nucleotide concentration was measured by the peak area of the chromatogram with calibration curves, which were prepared using a known amount of coenzymes.
Baking tests were performed with mini doughs (150 g).
The doughs were kneaded with a pin mixer during 4.5 minutes, after which they were incubated during 20 minutes at 25° C. The dough was sheeted and incubated again at 25° C. during 20 minutes, after which it was sheeted and incubated for 50 minutes at 36° C. and at a relative humidity of 80%. […] Bread volume after baking was determined by the rapeseed displacement method.

[3] = inhibitor at 4 mM, in vitro tests

Compound: O[C@H](CS)[C@H](O)CS (racemic) [DTT, dithiothreitol]
- inhibition of the NPP [1, 3]: inhibited the NPP at some extent

Compound: Nc1ncnc2c1ncn2[C@@H]1O[C@H](COP(=O)(O)OP(=O)(O)O)[C@@H](O)[C@H]1O [ADP]
- inhibition of the NPP ([1]; ADP 1 mM): inhibit the NPP partially
- ability to inhibit NPP in wheat flour [1]: able to inhibit

Compound: O=P([O-])(O)OP(=O)([O-])O.[Ca+2] [Ca-pyrophosphate, CaH2P2O7]
- inhibition of NAD+ degradation by a wheat flour extract ([1]; 50 to 100 mM Ca-pyrophosphate): completely inhibit

Compound: O=C(O)CN(CCN(CC(=O)O)CC(=O)O)CC(=O)O [EDTA]
- reactivation of the inhibited enzyme by divalent metal ions [1]: reactivated partially
- inhibition of the wheat flour NPP ([1]; from a concentration of 4 mM EDTA on, in vitro): complete inhibition

- inhibition of the NPP [1, 3]: inhibited the NPP at some extent
Compound: N[C@@H](CS)C(=O)O [L-cysteine]

Compound: O=P(O)(O)OP(=O)(O)O [pyrophosphate]
- inhibition of NAD+ degradation by a wheat flour extract ([1]; 10 mM pyrophosphate): Partial inhibition
- inhibition of NAD+ degradation by a wheat flour extract ([1]; 20 mM pyrophosphate): Partial inhibition
- reactivation of the inhibited enzyme by divalent metal ions [1]: This is not the case; also recorded: could not reactivate the enzyme
- mode of inhibition of wheat flour nucleotide pyrophosphatase ([1]; suggested: no reactivation by metal ions, pyrophosphate split into phosphate by flour extract): competitive inhibitor
- coenzyme concentrations (NAD+ and NADH) in dough [2]: higher coenzyme concentrations were observed

Compound: O=P(O)(O)OP(=O)(O)O [sodium pyrophosphate, Na2H2P2O7]
- inhibition of the NPP enzyme ([1]; 100 mM sodium pyrophosphate): completely inhibited

Compound: O=P([O-])([O-])OP(=O)([O-])OP(=O)([O-])[O-].[Na+].[Na+].[Na+].[Na+].[Na+] [tripolyphosphate, pentasodium tripolyphosphate (Na5P3O10)]
- ability to inhibit NPP in wheat flour [1]: able to inhibit

Compound: sodium metaphosphate ((NaPO3)n)
- ability to inhibit NPP in wheat flour [1]: able to inhibit
